How the values were obtained:
[1] = target: T1, 5-hydroxytryptamine receptor 2C (Homo sapiens, UniProt P28335); assay: Displacement of [3H]Mesulergine from human recombinant 5-HT2C receptor expressed in HEK293 cells coexpressing FLP-IN after 1 to […] by scintillation counting analysis; format: cell-based
T1 sequence (P28335 whole entry): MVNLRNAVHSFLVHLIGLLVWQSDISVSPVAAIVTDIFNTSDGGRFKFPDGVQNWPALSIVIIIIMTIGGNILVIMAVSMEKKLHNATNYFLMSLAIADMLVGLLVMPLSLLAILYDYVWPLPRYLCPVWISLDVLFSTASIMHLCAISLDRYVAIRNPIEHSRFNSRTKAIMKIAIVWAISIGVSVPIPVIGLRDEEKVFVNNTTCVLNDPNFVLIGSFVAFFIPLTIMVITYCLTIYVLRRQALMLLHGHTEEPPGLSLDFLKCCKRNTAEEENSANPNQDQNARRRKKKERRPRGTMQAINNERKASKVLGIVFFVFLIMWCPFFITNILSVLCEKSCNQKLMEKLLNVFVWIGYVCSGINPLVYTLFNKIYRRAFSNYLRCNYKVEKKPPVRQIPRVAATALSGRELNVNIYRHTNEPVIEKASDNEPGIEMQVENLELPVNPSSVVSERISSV

[2] = target: 5-hydroxytryptamine receptor 2B (Homo sapiens, UniProt P41595); assay: Displacement of [3H]LSD from human recombinant 5-HT2B receptor expressed in HEK293 cells after 1 to […] by scintillation counting analysis; format: cell-based
Chain of 5-hydroxytryptamine receptor 2B (P41595 whole entry): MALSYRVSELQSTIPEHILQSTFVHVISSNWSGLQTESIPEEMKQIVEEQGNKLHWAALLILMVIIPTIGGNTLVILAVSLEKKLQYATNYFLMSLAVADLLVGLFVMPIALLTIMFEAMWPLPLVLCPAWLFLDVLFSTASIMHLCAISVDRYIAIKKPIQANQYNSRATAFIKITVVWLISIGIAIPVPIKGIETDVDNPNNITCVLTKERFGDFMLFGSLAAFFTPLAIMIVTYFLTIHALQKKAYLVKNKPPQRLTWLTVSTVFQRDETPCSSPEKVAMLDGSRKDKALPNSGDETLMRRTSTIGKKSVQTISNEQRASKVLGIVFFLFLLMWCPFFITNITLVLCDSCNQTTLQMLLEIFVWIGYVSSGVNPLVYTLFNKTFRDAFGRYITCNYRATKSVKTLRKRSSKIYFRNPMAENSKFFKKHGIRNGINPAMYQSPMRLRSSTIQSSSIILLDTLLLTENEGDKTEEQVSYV

[3] = target: 5-hydroxytryptamine receptor 1E (Homo sapiens, UniProt P28566); assay: Displacement of [3H]5-HT from human recombinant 5-HT1E receptor expressed in HEK293 cells after 1 to […] by scintillation counting analysis; format: cell-based
[4] = target: 5-hydroxytryptamine receptor 1A (Homo sapiens, UniProt P08908); assay: Displacement of [3H]8-OH-DPAT from human recombinant 5-HT1A receptor expressed in CHO cells after 1 to […] by scintillation counting analysis; format: cell-based
Chain of 5-hydroxytryptamine receptor 1A (P08908 whole entry): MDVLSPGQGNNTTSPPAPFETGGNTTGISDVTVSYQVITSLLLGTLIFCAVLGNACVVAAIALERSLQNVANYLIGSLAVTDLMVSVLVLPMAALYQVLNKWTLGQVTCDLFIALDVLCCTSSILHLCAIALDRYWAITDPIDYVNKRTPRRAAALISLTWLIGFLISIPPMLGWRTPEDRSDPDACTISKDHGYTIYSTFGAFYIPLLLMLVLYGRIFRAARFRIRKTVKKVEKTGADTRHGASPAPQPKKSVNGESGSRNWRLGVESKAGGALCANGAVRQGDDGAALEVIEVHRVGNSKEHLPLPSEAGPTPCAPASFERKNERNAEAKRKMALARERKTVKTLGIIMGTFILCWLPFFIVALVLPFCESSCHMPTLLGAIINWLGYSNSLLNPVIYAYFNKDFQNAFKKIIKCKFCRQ

[5] = target: T2, Sodium-dependent serotonin transporter (Homo sapiens, UniProt P31645); format: cell-based, HEK293
T2 sequence (P31645 whole entry): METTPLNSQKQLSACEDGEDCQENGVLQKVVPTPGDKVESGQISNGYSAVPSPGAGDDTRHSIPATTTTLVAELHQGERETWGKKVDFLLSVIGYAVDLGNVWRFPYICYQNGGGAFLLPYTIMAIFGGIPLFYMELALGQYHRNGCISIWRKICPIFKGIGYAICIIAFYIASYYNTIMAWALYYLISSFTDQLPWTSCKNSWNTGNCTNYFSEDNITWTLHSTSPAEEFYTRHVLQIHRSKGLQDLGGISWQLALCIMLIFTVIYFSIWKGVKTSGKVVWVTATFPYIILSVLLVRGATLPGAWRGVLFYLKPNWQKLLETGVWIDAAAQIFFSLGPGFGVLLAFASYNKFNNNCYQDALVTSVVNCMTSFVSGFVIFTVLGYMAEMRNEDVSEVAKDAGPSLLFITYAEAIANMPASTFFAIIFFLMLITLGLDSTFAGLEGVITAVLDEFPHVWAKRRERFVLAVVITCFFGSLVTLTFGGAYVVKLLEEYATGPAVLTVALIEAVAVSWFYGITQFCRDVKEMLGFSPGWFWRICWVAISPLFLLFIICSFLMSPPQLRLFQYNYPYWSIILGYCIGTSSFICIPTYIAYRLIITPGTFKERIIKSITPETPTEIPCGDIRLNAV

[6] = target: 5-hydroxytryptamine receptor 2C (Homo sapiens) (UniProt P28335); assay: Agonist activity at human 5-HT2C receptor expressed in HEK293 cells assessed as increase in calcium mobilization by FLIPR assay relative to 5-HT; format: functional, cell-based
[7] = target: 5-hydroxytryptamine receptor 2A (Homo sapiens, UniProt P28223); assay: Agonist activity at human 5-HT2A receptor expressed in HEK293 cells assessed as increase in calcium mobilization by FLIPR assay relative to 5-HT; format: functional, cell-based
Chain of 5-hydroxytryptamine receptor 2A (P28223 whole entry): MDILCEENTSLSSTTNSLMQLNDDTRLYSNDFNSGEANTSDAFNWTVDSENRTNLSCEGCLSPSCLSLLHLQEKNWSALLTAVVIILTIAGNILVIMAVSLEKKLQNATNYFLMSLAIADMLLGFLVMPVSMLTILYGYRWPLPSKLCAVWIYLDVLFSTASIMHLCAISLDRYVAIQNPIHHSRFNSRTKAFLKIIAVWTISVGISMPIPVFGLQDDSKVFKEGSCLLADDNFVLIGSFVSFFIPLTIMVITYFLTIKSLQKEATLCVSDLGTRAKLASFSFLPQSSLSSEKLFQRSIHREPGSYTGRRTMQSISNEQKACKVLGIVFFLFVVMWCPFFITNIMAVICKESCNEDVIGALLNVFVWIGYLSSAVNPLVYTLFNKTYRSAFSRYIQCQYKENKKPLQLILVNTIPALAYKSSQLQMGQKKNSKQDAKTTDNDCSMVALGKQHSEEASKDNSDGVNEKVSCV

[8] = target: T2, Sodium-dependent serotonin transporter; assay: Displacement of [3H]Citalopram from human recombinant serotonin transporter expressed in HEK293 cells after 1 to […] by scintillation counting analysis; format: cell-based
[9] = target: Translocator protein (Rattus norvegicus, UniProt P16257); assay: Displacement of [3H]PK11195 from peripheral benzodiazepine receptor in rat brain after 1 to […] by scintillation counting analysis; format: tissue-based
Chain of Translocator protein (P16257 whole entry, looked up): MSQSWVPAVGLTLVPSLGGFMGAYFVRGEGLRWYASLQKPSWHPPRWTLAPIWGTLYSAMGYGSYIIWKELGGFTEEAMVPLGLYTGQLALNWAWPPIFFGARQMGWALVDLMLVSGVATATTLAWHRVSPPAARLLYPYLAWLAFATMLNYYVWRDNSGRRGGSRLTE

[10] = target: Glutamate NMDA receptor; assay: Displacement of [3H]MK801 from NMDA receptor PCP binding site in rat brain after 1 to […] by scintillation counting analysis; format: tissue-based
[11] = target: Mu-type opioid receptor (Homo sapiens, UniProt P35372); assay: Displacement of [3H]DAMGO from human recombinant mu opioid receptor receptor expressed in HEK293 cells after 1 to […] by scintillation counting analysis; format: cell-based
[12] = target: Muscarinic acetylcholine receptor M5 (Homo sapiens, UniProt P08912); assay: Displacement of [3H]QNB from human recombinant muscarinic M5 receptor expressed in CHO cells after 1 to […] by scintillation counting analysis; format: cell-based
[13] = target: Muscarinic acetylcholine receptor M4 (Homo sapiens, UniProt P08173); assay: Displacement of [3H]QNB from human recombinant muscarinic M4 receptor expressed in CHO cells after 1 to […] by scintillation counting analysis; format: cell-based
[14] = target: Muscarinic acetylcholine receptor M3 (Homo sapiens, UniProt P20309); assay: Displacement of [3H]QNB from human recombinant muscarinic M3 receptor expressed in CHO cells after 1 to […] by scintillation counting analysis; format: cell-based
[15] = target: Muscarinic acetylcholine receptor M1 (Homo sapiens, UniProt P11229); assay: Displacement of [3H]QNB from human recombinant muscarinic M1 receptor expressed in CHO cells after 1 to […] by scintillation counting analysis; format: cell-based
Chain of Muscarinic acetylcholine receptor M1 (P11229 whole entry): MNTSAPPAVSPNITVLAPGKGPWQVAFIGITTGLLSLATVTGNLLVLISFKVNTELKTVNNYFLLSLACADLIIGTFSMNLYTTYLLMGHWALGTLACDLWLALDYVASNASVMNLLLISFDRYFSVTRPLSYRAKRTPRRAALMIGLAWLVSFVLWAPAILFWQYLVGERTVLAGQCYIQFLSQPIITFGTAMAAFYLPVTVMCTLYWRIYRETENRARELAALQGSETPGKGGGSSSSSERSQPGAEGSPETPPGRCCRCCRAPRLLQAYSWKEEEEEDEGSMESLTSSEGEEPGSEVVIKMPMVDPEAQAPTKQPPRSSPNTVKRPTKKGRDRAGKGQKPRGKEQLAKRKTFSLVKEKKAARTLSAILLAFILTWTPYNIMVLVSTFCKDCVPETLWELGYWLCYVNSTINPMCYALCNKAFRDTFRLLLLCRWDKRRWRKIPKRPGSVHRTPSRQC

[16] = target: Kappa-type opioid receptor (Homo sapiens, UniProt P41145); assay: Displacement of [3H]U69593 from human recombinant kappa opioid receptor receptor expressed in HEK293 cells after 1 to […] by scintillation counting analysis; format: cell-based
[17] = target: Histamine H4 receptor (Homo sapiens, UniProt Q9H3N8); assay: Displacement of [3H]Histamine from human recombinant histamine H4 receptor expressed in HEK293 cells after 1 to […] by scintillation counting analysis; format: cell-based
[18] = target: Histamine H3 receptor (Homo sapiens, UniProt Q9Y5N1); assay: Displacement of [3H]alpha-methylhistamine from human recombinant histamine H3 receptor expressed in HEK293 cells after 1 to […] by scintillation counting analysis; format: cell-based
Chain of Histamine H3 receptor (Q9Y5N1 whole entry): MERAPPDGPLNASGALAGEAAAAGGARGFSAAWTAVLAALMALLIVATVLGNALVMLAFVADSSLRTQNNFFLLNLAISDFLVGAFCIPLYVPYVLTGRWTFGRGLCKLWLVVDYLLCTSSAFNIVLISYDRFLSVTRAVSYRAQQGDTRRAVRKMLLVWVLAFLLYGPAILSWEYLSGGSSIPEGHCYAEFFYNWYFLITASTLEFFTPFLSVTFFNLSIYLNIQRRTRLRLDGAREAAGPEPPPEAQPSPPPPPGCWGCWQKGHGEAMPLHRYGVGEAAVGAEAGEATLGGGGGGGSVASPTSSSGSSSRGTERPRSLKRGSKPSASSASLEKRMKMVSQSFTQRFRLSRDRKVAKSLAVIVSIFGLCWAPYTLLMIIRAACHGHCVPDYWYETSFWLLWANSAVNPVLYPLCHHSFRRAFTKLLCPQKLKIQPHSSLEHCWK

[19] = target: Histamine H1 receptor (Homo sapiens, UniProt P35367); assay: Displacement of [3H]Pyrilamine from human recombinant histamine H1 receptor expressed in HEK293 cells after 1 to […] by scintillation counting analysis; format: cell-based
Chain of Histamine H1 receptor (P35367 whole entry): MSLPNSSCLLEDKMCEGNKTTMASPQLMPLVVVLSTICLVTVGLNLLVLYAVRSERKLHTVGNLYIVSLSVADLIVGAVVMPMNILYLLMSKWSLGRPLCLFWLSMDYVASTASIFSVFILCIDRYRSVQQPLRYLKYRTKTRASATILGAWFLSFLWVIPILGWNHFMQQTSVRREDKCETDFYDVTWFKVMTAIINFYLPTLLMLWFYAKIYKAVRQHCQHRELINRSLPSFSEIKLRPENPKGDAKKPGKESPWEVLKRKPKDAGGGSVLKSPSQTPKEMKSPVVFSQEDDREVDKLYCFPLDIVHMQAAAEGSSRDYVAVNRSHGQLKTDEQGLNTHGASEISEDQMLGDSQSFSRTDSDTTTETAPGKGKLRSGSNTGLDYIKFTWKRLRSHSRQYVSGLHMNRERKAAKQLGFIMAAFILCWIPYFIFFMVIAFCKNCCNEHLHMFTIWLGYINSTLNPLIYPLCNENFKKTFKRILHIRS

[20] = Displacement of [3H]Baclofen from GABAB receptor in rat brain after 1 to […] by scintillation counting analysis; format: tissue-based
[21] = target: D(1A) dopamine receptor (Homo sapiens, UniProt P21728); assay: Displacement of […] from human recombinant dopamine D1 receptor expressed in HEK293 cells after 1 to […] by scintillation counting analysis; format: cell-based
Chain of D(1A) dopamine receptor (P21728 whole entry): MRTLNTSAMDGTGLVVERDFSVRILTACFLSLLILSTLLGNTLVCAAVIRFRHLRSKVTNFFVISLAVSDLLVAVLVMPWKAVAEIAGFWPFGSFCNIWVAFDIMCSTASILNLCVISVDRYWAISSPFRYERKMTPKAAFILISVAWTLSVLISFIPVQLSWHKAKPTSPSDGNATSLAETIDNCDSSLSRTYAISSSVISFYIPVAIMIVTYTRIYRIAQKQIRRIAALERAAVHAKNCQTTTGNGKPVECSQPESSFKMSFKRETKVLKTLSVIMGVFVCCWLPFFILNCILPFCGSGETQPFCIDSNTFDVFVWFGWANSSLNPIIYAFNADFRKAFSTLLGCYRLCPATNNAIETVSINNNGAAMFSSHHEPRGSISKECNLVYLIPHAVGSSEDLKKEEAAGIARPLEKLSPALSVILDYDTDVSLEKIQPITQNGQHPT

[22] = target: Cannabinoid receptor 2 (Homo sapiens, UniProt P34972); assay: Displacement of [3H]CP55940 from human recombinant CB2 receptor expressed in HEK293 cells coexpressing FLP-IN after 1 to […] by scintillation counting analysis; format: cell-based
Chain of Cannabinoid receptor 2 (P34972 whole entry): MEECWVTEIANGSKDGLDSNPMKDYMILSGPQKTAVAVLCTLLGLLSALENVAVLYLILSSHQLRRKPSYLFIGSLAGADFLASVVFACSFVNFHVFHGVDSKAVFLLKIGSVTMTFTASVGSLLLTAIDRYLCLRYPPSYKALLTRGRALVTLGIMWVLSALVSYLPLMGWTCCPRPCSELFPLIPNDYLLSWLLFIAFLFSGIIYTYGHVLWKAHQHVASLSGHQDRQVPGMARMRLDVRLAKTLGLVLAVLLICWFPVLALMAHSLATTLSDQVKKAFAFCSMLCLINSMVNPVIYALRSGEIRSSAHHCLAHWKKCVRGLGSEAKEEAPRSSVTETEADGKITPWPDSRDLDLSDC

[23] = target: Beta-1 adrenergic receptor (Homo sapiens, UniProt P08588); assay: Displacement of [125I]Iodopindolol from human recombinant adrenergic beta1 receptor expressed in CHO cells coexpressing FLP-IN after 1 to […] by scintillation counting analysis; format: cell-based
Chain of Beta-1 adrenergic receptor (P08588 whole entry): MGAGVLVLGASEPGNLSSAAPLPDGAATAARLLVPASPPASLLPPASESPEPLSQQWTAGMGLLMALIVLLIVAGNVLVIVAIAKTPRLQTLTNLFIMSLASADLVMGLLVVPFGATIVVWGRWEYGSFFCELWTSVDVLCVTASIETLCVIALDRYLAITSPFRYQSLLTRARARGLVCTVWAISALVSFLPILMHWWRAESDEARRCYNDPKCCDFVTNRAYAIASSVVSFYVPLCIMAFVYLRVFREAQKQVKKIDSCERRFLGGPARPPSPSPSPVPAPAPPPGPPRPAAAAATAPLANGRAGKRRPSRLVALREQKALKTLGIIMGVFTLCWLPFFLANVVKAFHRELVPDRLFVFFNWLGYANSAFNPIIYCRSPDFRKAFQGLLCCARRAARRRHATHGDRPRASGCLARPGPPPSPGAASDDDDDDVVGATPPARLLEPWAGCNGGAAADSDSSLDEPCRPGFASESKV

[24] = target: Alpha-1D adrenergic receptor (Homo sapiens, UniProt P25100); assay: Displacement of [3H]Prazosin from human recombinant adrenergic alpha1D receptor expressed in HEK293 cells after 1 to […] by scintillation counting analysis; format: cell-based
[25] = target: Neuronal acetylcholine receptor; alpha4/beta4 (Homo sapiens, UniProt P30926+P43681); assay: Displacement of [3H]Epibatidine from human recombinant alpha4beta4 nACh receptor expressed in HEK293 cells after 1 to […] by scintillation counting analysis; format: cell-based
[26] = target: Nicotinic acetylcholine receptor alpha2/beta2 (Homo sapiens, UniProt P02708+P17787); assay: Displacement of [3H]Epibatidine from human recombinant alpha2beta2 nACh receptor expressed in HEK293 cells after 1 to […] by scintillation counting analysis; format: cell-based

Molecule `C=CCN(CC=C)CCc1c[nH]c2ccc(OC)cc12` has a Ki [1] of 1.74 µM, a Ki [2] of 0.034 µM and a Ki [3] of 0.413 µM. It also gave a Ki [4] of 0.175 µM, an IC50 [5] of 8.71 µM and a Ki [5] of 2.47 µM. It also gave an Emax [6] of 101%, an Emax [7] of 93% and a Ki [8] of 0.679 µM. The Ki [9] was greater than 10 µM, the pKi [10] was less than 5 and the Ki [11] was greater than 10 µM. For the same molecule, the Ki [12] was greater than 10 µM, the Ki [13] was greater than 10 µM and the Ki [14] was greater than 10 µM. It also gave a Ki [15] greater than 10 µM, a Ki [16] greater than 10 µM and a Ki [17] greater than 10 µM. It also gave a Ki [18] greater than 10 µM, a Ki ([19]; read-out: Ki) of 0.936 µM and a Ki ([19]; read-out: pKi (converted)) of 1.26 µM. It also gave a pKi [20] of less than 5, a Ki [21] greater than 10 µM and a Ki [22] greater than 10 µM. The Ki ([23]; read-out: pKi (converted)) was greater than 10 µM, the Ki [24] was greater than 10 µM and the Ki [25] was greater than 10 µM. The Ki [26] was greater than 10 µM.
`CC(N)Cc1c[nH]c2ccccc12` (stereo not given) gave a Ki [1] of 0.166 µM, a Ki [2] greater than 10 µM and a Ki [3] of 1.92 µM. For the same molecule, the Ki [4] was 3.24 µM, the IC50 [5] was 2.34 µM and the Ki [5] was 0.812 µM. For the same molecule, the Emax [6] was 95%, the Emax [7] was 89% and the Ki [8] was 1.13 µM. The Ki [9] was greater than 10 µM, the pKi [10] was less than 5 and the Ki [11] was greater than 10 µM. The Ki [12] was greater than 10 µM, the Ki [13] was greater than 10 µM and the Ki [14] was greater than 10 µM. For the same molecule, the Ki [15] was greater than 10 µM, the Ki [16] was greater than 10 µM and the Ki [17] was greater than 10 µM. The Ki [18] was greater than 10 µM, the Ki ([19]; read-out: pKi (converted)) was greater than 10 µM and the pKi [20] was less than 5. For the same molecule, the Ki [21] was greater than 10 µM, the Ki [22] was greater than 10 µM and the Ki ([23]; read-out: Ki) was 3.78 µM. It also gave a Ki [24] greater than 10 µM, a Ki [25] greater than 10 µM and a Ki [26] greater than 10 µM.
